Assay results reported in PubChem BioAssay (NCI).
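96-well plates; 48 h exposure; 5 concentrations. Endpoints by linear interpolation between flanking doses. Not reached: highest tested concentration assigned. Abbreviation: GI50, concentration required for 50% inhibition of growth. TGI is the concentration that stops growth completely.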

Columns and labels:
Test in all cases: NCI tumour cell line growth inhibition, 48 h
DLD-1 colon = tested on: DLD-1 colon
HCC-2998 colon = tested on: HCC-2998 colon
HL-60(TB) leukemia = tested on: HL-60(TB) leukemia
HCT-15 colon = tested on: HCT-15 colon
MALME-3M melanoma = tested on: MALME-3M melanoma
SNB-78 CNS = tested on: SNB-78 CNS
A498 renal = tested on: A498 renal
HCT-116 colon = tested on: HCT-116 colon
RPMI-8226 leukemia = tested on: RPMI-8226 leukemia
UO-31 renal = tested on: UO-31 renal
NCI-H460 lung = tested on: NCI-H460 lung
COLO 205 colon = tested on: COLO 205 colon
OVCAR-3 ovarian = tested on: OVCAR-3 ovarian
SK-OV-3 ovarian = tested on: SK-OV-3 ovarian
HOP-92 NSCLC = tested on: HOP-92 NSCLC
SNB-75 CNS = tested on: SNB-75 CNS
786-0 renal = tested on: 786-0 renal
SK-MEL-28 melanoma = tested on: SK-MEL-28 melanoma
HT29 colon = tested on: HT29 colon
NCI-H522 lung = tested on: NCI-H522 lung
A549 NSCLC = tested on: A549 NSCLC
M19-MEL melanoma = tested on: M19-MEL melanoma
SF-295 CNS = tested on: SF-295 CNS
DMS 273 small cell lung = tested on: DMS 273 small cell lung
M14 melanoma = tested on: M14 melanoma
RXF 393 renal = tested on: RXF 393 renal
SN12C renal = tested on: SN12C renal
XF 498 CNS = tested on: XF 498 CNS
IGROV1 ovarian = tested on: IGROV1 ovarian

Structure (SMILES): CC(C)N(C(C)C)[PH+]1O[PH+](N(C(C)C)C(C)C)O[PH+](N(C(C)C)C(C)C)O[PH+](N(C(C)C)C(C)C)O1.[C-]#[O+].[C-]#[O+].[C-]#[O+].[C-]#[O+].[C-]#[O+].[C-]#[O+].[C-]#[O+].[C-]#[O+].[Mo].[Mo] (stereo not drawn)
- GI50 (DLD-1 colon): > 100 µM
- TGI (DLD-1 colon): > 100 µM
- GI50 (HCC-2998 colon): > 100 µM
- TGI (HCC-2998 colon): > 100 µM
- GI50 (HL-60(TB) leukemia): > 100 µM
- TGI (HL-60(TB) leukemia): > 100 µM
- GI50 (HCT-15 colon): > 100 µM
- TGI (HCT-15 colon): > 100 µM
- GI50 (MALME-3M melanoma): > 100 µM
- TGI (MALME-3M melanoma): > 100 µM
- GI50 (SNB-78 CNS): > 100 µM
- TGI (SNB-78 CNS): > 100 µM
- GI50 (A498 renal): > 100 µM
- TGI (A498 renal): > 100 µM
- GI50 (HCT-116 colon): > 100 µM
- TGI (HCT-116 colon): > 100 µM
- GI50 (RPMI-8226 leukemia): > 100 µM
- TGI (RPMI-8226 leukemia): > 100 µM
- GI50 (UO-31 renal): > 100 µM
- TGI (UO-31 renal): > 100 µM
- GI50 (NCI-H460 lung): > 100 µM
- TGI (NCI-H460 lung): > 100 µM
- GI50 (COLO 205 colon): > 100 µM
- TGI (COLO 205 colon): > 100 µM
- GI50 (OVCAR-3 ovarian): > 100 µM
- TGI (OVCAR-3 ovarian): > 100 µM
- GI50 (SK-OV-3 ovarian): > 100 µM
- TGI (SK-OV-3 ovarian): > 100 µM
- GI50 (HOP-92 NSCLC): > 100 µM
- TGI (HOP-92 NSCLC): > 100 µM
- GI50 (SNB-75 CNS): > 100 µM
- TGI (SNB-75 CNS): > 100 µM
- GI50 (786-0 renal): > 100 µM
- TGI (786-0 renal): > 100 µM
- GI50 (SK-MEL-28 melanoma): > 100 µM
- TGI (SK-MEL-28 melanoma): > 100 µM
- GI50 (HT29 colon): > 100 µM
- TGI (HT29 colon): > 100 µM
- GI50 (NCI-H522 lung): > 100 µM
- TGI (NCI-H522 lung): > 100 µM
- GI50 (A549 NSCLC): > 100 µM
- TGI (A549 NSCLC): > 100 µM
- GI50 (M19-MEL melanoma): > 100 µM
- TGI (M19-MEL melanoma): > 100 µM
- GI50 (SF-295 CNS): > 100 µM
- TGI (SF-295 CNS): > 100 µM
- GI50 (DMS 273 small cell lung): > 100 µM
- TGI (DMS 273 small cell lung): > 100 µM
- GI50 (M14 melanoma): > 100 µM
- TGI (M14 melanoma): > 100 µM
- GI50 (RXF 393 renal): > 100 µM
- TGI (RXF 393 renal): > 100 µM
- GI50 (SN12C renal): > 100 µM
- TGI (SN12C renal): > 100 µM
- GI50 (XF 498 CNS): > 100 µM
- TGI (XF 498 CNS): > 100 µM
- GI50 (IGROV1 ovarian): > 100 µM
- TGI (IGROV1 ovarian): > 100 µM
